Reference: US4672036A, “Pure cultures of Kibdelsporangium aridum Shearer gen. nov., sp. nov. ATCC 39323 and mutants thereof” (SmithKline Beckman Corporation, priority 1985, dated 1987)
≈ marks a conversion by molar mass, not a printed value. Where “and” joins values, the source holds several entries; their conditions need not be identical. Identical values can stand only once. Like-named read-outs stand apart in the source and are kept apart here.

Experiments:
[1] = tested on: Staph. aureus SK & F 2666; type: cell-based; conditions: Staphylococcus aureus
[2] = tested on: Staph. aureus SK & F 1761; type: cell-based; conditions: Staphylococcus aureus
[3] = tested on: C. perfringens MCP-2; assay: microbe, parasite or virus in culture; conditions: Clostridium perfringens, MCP2
[4] = tested on: Staph. aureus SK & F 2592; type: cell-based; conditions: Staphylococcus aureus
[5] = tested on: Staph. aureus SK & F 674; type: cell-based
[6] = tested on: Staph. aureus SK & F 2591; type: cell-based; conditions: Staphylococcus aureus
[7] = tested on: Pseudomonas aeruginosa HH63; type: cell-based; conditions: Pseudomonas aeruginosa, HH63
[8] = tested on: Kleb. pneumoniae 4200 (SK & F 798); type: cell-based; conditions: Klebsiella pneumoniae
[9] = tested on: Listeria monocytogenes SK & F 2255; type: cell-based; conditions: Listeria monocytogenes
[10] = tested on: Staph. aureus SK & F 2612; type: cell-based; conditions: Staphylococcus aureus
[11] = tested on: Staph. epidermidis SK & F 2683; type: cell-based; conditions: Staphylococcus epidermidis
[12] = tested on: Staph. aureus SK & F 2614; type: cell-based; conditions: Staphylococcus aureus
[13] = tested on: Providencia SK & F 276; type: cell-based; conditions: Providencia
[14] = tested on: Swine in vitro model; assay: swine in vitro model (growth promotant activity)
[15] = tested on: Staph. aureus SK & F 2596; type: cell-based; conditions: Staphylococcus aureus
[16] = tested on: Staph. aureus SK & F 2613; type: cell-based; conditions: Staphylococcus aureus
[17] = tested on: E. coli 12140 (SK & F 809); type: cell-based; conditions: Escherichia coli
[18] = tested on: Staph. epidermidis SK & F 2479; type: cell-based; conditions: Staphylococcus epidermidis
[19] = tested on: rumen in vitro model; assay: rumen in vitro model (growth promotant activity); parameters: species or system steer
[20] = tested on: Staph. aureus SK & F 674-P6 Mutant; assay: microbe, parasite or virus in culture; type: cell-based; conditions: Staphylococcus aureus
[21] = tested on: Staph. aureus SK & F 2777; type: cell-based; conditions: Staphylococcus aureus
[22] = tested on: Staph. aureus SK & F 2589; type: cell-based; conditions: Staphylococcus aureus
[23] = tested on: Staph. epidermidis SK & F 2265; type: cell-based; conditions: Staphylococcus epidermidis

Question: `CN[C@H](CC(C)C)C(=O)N[C@H]1C(=O)N[C@@H](CC(N)=O)C(=O)N[C@H]2C(=O)N[C@H]3C(=O)N[C@H](C(=O)N[C@H](C(=O)O)c4cc(O)cc(O)c4-c4cc3ccc4O)[C@H](O)c3ccc(c(Cl)c3)Oc3cc2cc(c3O[C@@H]2O[C@H](CO)[C@@H](O)[C@H](O)[C@H]2O[C@H]2C[C@](C)(N)[C@H](O)[C@H](C)O2)Oc2ccc(cc2Cl)[C@H]1O` [Vancomycin, reference compound] was tested. Which MIC [1] did it give?
Answer: The MIC was 1.6 µg/mL (≈ 1.1 µM).

Question: And the MIC [2]?
Answer: The MIC was 1.6 µg/mL (≈ 1.1 µM).

Question: What about the MIC [3] of the same compound?
Answer: Its MIC is 0.5 µg/mL (≈ 0.345 µM).

Question: And the MIC [4]?
Answer: Its MIC is 3.1 µg/mL (≈ 2.14 µM).

Question: And the MIC ([5]; Staphylococcus aureus)?
Answer: Its MIC is 1.6 µg/mL (≈ 1.1 µM).

Question: What about the MIC ([5]; Table E) of the same compound?
Answer: The MIC was 1.6 µg/mL (≈ 1.1 µM).

Question: And the MIC [6]?
Answer: The MIC was 1.6 µg/mL (≈ 1.1 µM).

Question: And the MIC [7]?
Answer: Its MIC is > 100 µg/mL.

Question: And the MIC [8]?
Answer: Its MIC is > 100 µg/mL.

Question: And the MIC ([9]; Table A)?
Answer: Its MIC is 1.6 µg/mL (≈ 1.1 µM).

Question: And the MIC ([9]; Table E)?
Answer: The MIC was 3.1 µg/mL (≈ 2.14 µM).

Question: What about the MIC [10] of the same compound?
Answer: The MIC was 1.6 µg/mL (≈ 1.1 µM).

Question: What about the MIC [11] of the same compound?
Answer: The MIC was 6.3 µg/mL (≈ 4.35 µM).

Question: And the MIC [12]?
Answer: Its MIC is 1.6 µg/mL (≈ 1.1 µM).

Question: And the MIC [13]?
Answer: The MIC was > 100 µg/mL.

Question: And the “GLU (glucose)” value [14]?
Answer: The value was 190 % Control and 189 % Control.

Question: What about the “LAC (L-lactic acid)” value [14] of the same compound?
Answer: The value was 64 % Control and 59 % Control.

Question: What about the “LYS (lysine)” value [14] of the same compound?
Answer: The value was 48 % Control and 42 % Control and 83 % Control.

Question: What about the MIC [15] of the same compound?
Answer: The MIC was 3.1 µg/mL (≈ 2.14 µM).

Question: And the MIC [16]?
Answer: The MIC was 1.6 µg/mL (≈ 1.1 µM).

Question: What about the MIC ([17]; Table A) of the same compound?
Answer: Its MIC is 100 µg/mL (≈ 69 µM).

Question: What about the MIC ([17]; Table E) of the same compound?
Answer: The MIC was > 100 µg/mL.

Question: What about the MIC ([18]; Table A) of the same compound?
Answer: The MIC was 1.6 µg/mL (≈ 1.1 µM).

Question: What about the MIC ([18]; Table E) of the same compound?
Answer: The MIC was 6.3 µg/mL (≈ 4.35 µM).

Question: What about the “LYS (lysine)” value [19] of the same compound?
Answer: The value was 85 % Control and 83 % Control.

Question: And the MIC [20]?
Answer: The MIC was > 100 µg/mL.

Question: And the MIC [21]?
Answer: Its MIC is 0.8 µg/mL (≈ 0.552 µM).

Question: What about the MIC [22] of the same compound?
Answer: The MIC was 1.6 µg/mL (≈ 1.1 µM).

Question: And the MIC [23]?
Answer: Its MIC is 6.3 µg/mL (≈ 4.35 µM).
